Assay results taken from PMC6407913, “DREADD Agonist 21 Is an Effective Agonist for Muscarinic-Based DREADDs in Vitro and in Vivo” (ACS Pharmacology & Translational Science, 2018).
“And” between values parts separate entries of the source, which are not always exact repeats. Identical values can stand only once.

What was measured:
Assay type in all cases: cell-based
[1] = biological target: T1, 318 nonolfactory human GPCRs (Homo sapiens, UniProt O00155); settings: GPR25; C21 5 µM
T1 construct: expressed in transfected cells; host or cells: HTLA cells, transient

[2] = biological target: T2, 318 nonolfactory human GPCRs (Homo sapiens, UniProt Q9H1C0); settings: LPAR5; C21 5 µM
T2 construct: expressed in transfected cells; host or cells: HTLA cells, transient
T2 sequence (Q9H1C0 whole entry): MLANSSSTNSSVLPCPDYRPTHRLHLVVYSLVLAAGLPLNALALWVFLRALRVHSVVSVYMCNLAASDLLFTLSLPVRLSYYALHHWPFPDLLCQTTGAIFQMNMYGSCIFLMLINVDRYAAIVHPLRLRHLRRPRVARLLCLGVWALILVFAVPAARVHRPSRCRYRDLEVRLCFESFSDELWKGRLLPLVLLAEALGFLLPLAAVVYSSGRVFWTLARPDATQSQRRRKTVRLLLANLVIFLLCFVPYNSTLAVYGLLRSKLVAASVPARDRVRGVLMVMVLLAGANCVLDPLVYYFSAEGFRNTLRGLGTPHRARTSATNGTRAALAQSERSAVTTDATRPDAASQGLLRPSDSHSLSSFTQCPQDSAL

[3] = biological target: T3, 318 nonolfactory human GPCRs (Homo sapiens, UniProt Q96LB1); settings: MRGPRX2; C21 5 µM
T3 construct: expressed in transfected cells; host or cells: HTLA cells, transient

[4] = biological target: T4, 318 nonolfactory human GPCRs (Homo sapiens, UniProt Q86SM8); settings: MRGPRE; C21 5 µM
T4 construct: expressed in transfected cells; host or cells: HTLA cells, transient

[5] = biological target: T5, 318 nonolfactory human GPCRs (Homo sapiens, UniProt Q96P66); settings: GPR101; C21 5 µM
T5 construct: expressed in transfected cells; host or cells: HTLA cells, transient

[6] = biological target: T6, 318 nonolfactory human GPCRs (Homo sapiens, UniProt Q9NS66); settings: GPR173; C21 5 µM
T6 construct: expressed in transfected cells; host or cells: HTLA cells, transient

[7] = biological target: T7, 318 nonolfactory human GPCRs (Homo sapiens, UniProt Q8NDV2); settings: GPR26; C21 5 µM
T7 construct: expressed in transfected cells; host or cells: HTLA cells, transient

[8] = biological target: 318 nonolfactory human GPCRs (Homo sapiens, UniProt O95977); settings: S1PR4; C21 5 µM
Sequence of 318 nonolfactory human GPCRs (Homo sapiens, UniProt O95977) (O95977 whole entry): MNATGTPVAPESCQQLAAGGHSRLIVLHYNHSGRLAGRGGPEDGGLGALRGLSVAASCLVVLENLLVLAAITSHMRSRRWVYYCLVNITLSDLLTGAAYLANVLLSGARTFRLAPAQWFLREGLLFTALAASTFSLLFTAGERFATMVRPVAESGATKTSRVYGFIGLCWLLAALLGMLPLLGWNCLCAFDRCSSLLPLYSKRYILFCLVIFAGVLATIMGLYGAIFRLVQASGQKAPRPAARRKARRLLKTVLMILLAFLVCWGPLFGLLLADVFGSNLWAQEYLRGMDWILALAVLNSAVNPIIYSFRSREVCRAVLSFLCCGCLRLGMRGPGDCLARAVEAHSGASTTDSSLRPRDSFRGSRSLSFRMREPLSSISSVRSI

[9] = biological target: 318 nonolfactory human GPCRs (Homo sapiens, UniProt P07550); settings: ADRB2; C21 5 µM
[10] = biological target: T8, 318 nonolfactory human GPCRs (Homo sapiens, UniProt Q16538); settings: GPR162; C21 5 µM
T8 construct: expressed in transfected cells; host or cells: HTLA cells, transient

[11] = biological target: 318 nonolfactory human GPCRs (Homo sapiens, UniProt Q15743); settings: GPR68; C21 5 µM
[12] = biological target: T9, 318 nonolfactory human GPCRs (Homo sapiens, UniProt Q9BZJ6); settings: GPR63; C21 5 µM
T9 construct: expressed in transfected cells; host or cells: HTLA cells, transient

[13] = biological target: T10, 318 nonolfactory human GPCRs (Homo sapiens, UniProt P34995); settings: PTGER1; C21 5 µM
T10 construct: expressed in transfected cells; host or cells: HTLA cells, transient

[14] = biological target: T11, 318 nonolfactory human GPCRs (Homo sapiens, UniProt P48039); settings: MTNR1A; C21 5 µM
T11 construct: expressed in transfected cells; host or cells: HTLA cells, transient
T11 sequence (P48039 whole entry): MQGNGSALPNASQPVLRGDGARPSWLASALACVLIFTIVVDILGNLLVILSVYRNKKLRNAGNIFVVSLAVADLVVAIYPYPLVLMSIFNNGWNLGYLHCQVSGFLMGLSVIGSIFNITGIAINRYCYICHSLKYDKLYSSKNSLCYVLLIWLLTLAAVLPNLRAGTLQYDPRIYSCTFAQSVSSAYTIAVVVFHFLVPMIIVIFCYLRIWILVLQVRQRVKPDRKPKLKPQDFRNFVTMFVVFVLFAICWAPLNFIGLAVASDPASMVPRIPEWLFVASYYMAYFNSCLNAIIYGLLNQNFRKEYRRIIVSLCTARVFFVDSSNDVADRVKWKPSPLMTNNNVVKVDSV

[15] = biological target: T12, 318 nonolfactory human GPCRs (Homo sapiens, UniProt Q9GZN0); settings: GPR88; C21 5 µM
T12 construct: expressed in transfected cells; host or cells: HTLA cells, transient

[16] = biological target: T13, 318 nonolfactory human GPCRs (Homo sapiens, UniProt P41587); settings: VIPR2; C21 5 µM
T13 construct: expressed in transfected cells; host or cells: HTLA cells, transient
T13 sequence (P41587 24-438): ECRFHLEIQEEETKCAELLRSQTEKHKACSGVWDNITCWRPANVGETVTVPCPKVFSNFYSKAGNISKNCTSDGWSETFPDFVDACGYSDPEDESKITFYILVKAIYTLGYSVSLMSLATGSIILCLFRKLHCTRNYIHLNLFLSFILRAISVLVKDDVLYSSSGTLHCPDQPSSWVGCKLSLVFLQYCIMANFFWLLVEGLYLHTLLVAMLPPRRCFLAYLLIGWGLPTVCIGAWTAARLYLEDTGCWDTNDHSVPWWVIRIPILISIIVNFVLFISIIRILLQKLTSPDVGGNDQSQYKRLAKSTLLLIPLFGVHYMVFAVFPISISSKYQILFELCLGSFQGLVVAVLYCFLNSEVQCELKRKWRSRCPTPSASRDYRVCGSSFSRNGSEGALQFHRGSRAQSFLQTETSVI

[17] = biological target: T14, 318 nonolfactory human GPCRs (Homo sapiens, UniProt Q99527); settings: GPER; C21 5 µM
T14 construct: expressed in transfected cells; host or cells: HTLA cells, transient
T14 sequence (Q99527 whole entry): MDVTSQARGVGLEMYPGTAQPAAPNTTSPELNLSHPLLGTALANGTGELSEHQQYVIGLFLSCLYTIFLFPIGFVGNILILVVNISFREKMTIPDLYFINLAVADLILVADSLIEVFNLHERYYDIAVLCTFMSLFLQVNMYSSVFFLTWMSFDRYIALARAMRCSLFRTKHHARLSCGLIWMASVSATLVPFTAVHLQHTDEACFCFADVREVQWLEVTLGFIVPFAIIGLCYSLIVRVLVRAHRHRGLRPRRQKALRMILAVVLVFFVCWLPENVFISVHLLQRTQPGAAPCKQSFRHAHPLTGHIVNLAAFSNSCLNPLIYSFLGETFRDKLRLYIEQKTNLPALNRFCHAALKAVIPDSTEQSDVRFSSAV

[18] = biological target: T15, 318 nonolfactory human GPCRs (Homo sapiens, UniProt Q8TDU6); settings: GPBA; C21 5 µM
T15 construct: expressed in transfected cells; host or cells: HTLA cells, transient

[19] = biological target: T16, 318 nonolfactory human GPCRs (Homo sapiens, UniProt Q6U736); settings: OPN5; C21 5 µM
T16 construct: expressed in transfected cells; host or cells: HTLA cells, transient

[20] = biological target: T17, 318 nonolfactory human GPCRs (Homo sapiens, UniProt Q14416); settings: GMR2; C21 5 µM
T17 construct: expressed in transfected cells; host or cells: HTLA cells, transient

[21] = biological target: T18, 318 nonolfactory human GPCRs (Homo sapiens, UniProt P04201); settings: MAS1; C21 5 µM
T18 construct: expressed in transfected cells; host or cells: HTLA cells, transient
T18 sequence (P04201 whole entry): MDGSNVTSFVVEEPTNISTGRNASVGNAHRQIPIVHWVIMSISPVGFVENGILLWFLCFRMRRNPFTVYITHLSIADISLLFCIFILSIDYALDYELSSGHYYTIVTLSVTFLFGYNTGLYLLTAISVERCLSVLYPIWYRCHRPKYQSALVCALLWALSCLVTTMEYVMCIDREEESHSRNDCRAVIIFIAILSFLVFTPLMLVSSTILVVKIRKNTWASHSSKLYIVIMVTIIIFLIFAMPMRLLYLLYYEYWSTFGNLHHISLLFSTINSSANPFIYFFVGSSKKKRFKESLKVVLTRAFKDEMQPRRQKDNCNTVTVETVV

[22] = biological target: T19, 318 nonolfactory human GPCRs (Homo sapiens, UniProt Q13639); settings: HTR4; C21 5 µM
T19 construct: expressed in transfected cells; host or cells: HTLA cells, transient

[23] = biological target: T20, 318 nonolfactory human GPCRs (Homo sapiens, UniProt P33032); settings: MC5R; C21 5 µM
T20 construct: expressed in transfected cells; host or cells: HTLA cells, transient

[24] = biological target: T21, 318 nonolfactory human GPCRs (Homo sapiens, UniProt P08912); settings: CHRM5; C21 5 µM
T21 construct: expressed in transfected cells; host or cells: HTLA cells, transient

[25] = biological target: T22, 318 nonolfactory human GPCRs (Homo sapiens, UniProt Q15077); settings: P2RY6; C21 5 µM
T22 construct: expressed in transfected cells; host or cells: HTLA cells, transient

[26] = biological target: 318 nonolfactory human GPCRs (Homo sapiens, UniProt P28221); settings: HTR1D; C21 5 µM
[27] = biological target: T23, 318 nonolfactory human GPCRs (Homo sapiens, UniProt Q8IWK6); settings: GPR125; C21 5 µM
T23 construct: expressed in transfected cells; host or cells: HTLA cells, transient
T23 sequence (Q8IWK6 34-1321): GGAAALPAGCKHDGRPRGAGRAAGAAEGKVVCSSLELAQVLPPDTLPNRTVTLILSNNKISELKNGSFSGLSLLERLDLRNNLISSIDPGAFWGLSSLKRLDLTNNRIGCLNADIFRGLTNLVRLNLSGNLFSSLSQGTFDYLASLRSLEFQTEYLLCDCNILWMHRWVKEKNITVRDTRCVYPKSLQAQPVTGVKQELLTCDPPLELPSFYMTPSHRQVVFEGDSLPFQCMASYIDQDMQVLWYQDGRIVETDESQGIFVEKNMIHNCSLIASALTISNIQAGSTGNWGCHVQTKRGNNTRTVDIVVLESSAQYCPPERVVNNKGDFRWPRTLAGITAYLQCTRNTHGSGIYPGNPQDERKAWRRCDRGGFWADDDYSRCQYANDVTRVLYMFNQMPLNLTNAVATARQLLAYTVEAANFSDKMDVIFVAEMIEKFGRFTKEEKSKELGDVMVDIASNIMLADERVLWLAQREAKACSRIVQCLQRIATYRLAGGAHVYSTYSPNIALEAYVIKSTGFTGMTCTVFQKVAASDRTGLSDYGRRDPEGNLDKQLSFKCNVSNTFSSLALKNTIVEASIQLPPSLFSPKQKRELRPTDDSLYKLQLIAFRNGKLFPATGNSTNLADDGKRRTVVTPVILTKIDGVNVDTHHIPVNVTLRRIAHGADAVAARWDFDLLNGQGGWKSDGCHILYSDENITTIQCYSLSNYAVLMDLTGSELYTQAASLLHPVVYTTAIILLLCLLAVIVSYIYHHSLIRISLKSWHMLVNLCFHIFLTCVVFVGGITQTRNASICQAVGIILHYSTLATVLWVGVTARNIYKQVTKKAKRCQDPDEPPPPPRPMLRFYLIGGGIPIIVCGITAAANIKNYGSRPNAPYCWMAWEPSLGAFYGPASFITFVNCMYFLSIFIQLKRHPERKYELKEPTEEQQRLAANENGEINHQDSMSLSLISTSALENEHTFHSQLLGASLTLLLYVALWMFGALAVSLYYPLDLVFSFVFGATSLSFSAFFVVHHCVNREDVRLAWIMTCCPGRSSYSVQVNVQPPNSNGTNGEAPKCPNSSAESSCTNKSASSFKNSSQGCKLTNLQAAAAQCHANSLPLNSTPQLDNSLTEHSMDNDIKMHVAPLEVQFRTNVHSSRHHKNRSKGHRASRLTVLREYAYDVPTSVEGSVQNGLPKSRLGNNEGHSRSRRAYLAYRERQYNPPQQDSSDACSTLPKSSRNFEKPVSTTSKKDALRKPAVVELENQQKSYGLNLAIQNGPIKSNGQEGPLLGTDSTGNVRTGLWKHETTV

[28] = biological target: 318 nonolfactory human GPCRs (Homo sapiens, UniProt Q8IYL9); settings: GPR65; C21 5 µM
[29] = biological target: 318 nonolfactory human GPCRs (Homo sapiens, UniProt P35462); settings: DRD3; C21 5 µM
Sequence of 318 nonolfactory human GPCRs (Homo sapiens, UniProt P35462) (P35462 whole entry): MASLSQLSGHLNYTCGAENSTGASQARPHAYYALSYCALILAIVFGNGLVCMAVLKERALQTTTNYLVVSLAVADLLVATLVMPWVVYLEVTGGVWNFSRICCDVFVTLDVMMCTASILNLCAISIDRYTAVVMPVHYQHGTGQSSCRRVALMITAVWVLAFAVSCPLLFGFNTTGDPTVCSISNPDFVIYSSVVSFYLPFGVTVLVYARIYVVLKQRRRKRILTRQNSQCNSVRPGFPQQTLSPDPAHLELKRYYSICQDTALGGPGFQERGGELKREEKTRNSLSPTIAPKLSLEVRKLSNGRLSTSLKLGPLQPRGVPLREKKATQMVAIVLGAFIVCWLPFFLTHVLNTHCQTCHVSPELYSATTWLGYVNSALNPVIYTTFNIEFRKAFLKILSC

[30] = biological target: T24, 318 nonolfactory human GPCRs (Homo sapiens, UniProt Q86SQ6); settings: GPR123; C21 5 µM
T24 construct: expressed in transfected cells; host or cells: HTLA cells, transient
T24 sequence (Q86SQ6 whole entry): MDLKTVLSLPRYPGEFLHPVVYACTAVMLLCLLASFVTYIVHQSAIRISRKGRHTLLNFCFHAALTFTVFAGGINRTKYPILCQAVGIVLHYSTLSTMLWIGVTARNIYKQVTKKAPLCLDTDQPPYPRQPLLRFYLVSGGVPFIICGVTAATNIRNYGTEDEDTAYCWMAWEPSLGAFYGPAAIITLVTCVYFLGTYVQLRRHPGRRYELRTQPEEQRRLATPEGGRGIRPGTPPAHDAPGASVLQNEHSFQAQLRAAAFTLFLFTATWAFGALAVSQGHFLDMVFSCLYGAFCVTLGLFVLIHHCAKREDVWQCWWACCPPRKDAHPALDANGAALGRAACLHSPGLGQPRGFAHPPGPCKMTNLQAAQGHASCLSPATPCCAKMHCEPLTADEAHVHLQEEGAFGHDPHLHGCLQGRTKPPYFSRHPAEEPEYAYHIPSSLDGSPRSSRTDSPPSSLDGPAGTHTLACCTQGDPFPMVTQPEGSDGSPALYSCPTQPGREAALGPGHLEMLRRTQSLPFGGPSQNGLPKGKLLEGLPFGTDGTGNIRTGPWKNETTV

[31] = biological target: T25, 318 nonolfactory human GPCRs (Homo sapiens, UniProt P25105); settings: PTAFR; C21 5 µM
T25 construct: expressed in transfected cells; host or cells: HTLA cells, transient
T25 sequence (P25105 whole entry): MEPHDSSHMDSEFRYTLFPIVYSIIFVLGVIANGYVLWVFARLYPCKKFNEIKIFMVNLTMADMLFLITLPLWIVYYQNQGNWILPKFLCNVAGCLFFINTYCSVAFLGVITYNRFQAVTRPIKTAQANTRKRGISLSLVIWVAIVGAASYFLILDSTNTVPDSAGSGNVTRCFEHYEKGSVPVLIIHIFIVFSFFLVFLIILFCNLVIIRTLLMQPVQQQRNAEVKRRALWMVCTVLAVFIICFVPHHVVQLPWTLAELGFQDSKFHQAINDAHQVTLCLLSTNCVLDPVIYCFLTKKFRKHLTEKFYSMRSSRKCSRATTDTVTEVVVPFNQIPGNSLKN

[32] = biological target: T26, 318 nonolfactory human GPCRs (Homo sapiens, UniProt O14626); settings: GPR171; C21 5 µM
T26 construct: expressed in transfected cells; host or cells: HTLA cells, transient

[33] = biological target: T27, 318 nonolfactory human GPCRs (Homo sapiens, UniProt O95838); settings: GLP2R; C21 5 µM
T27 construct: expressed in transfected cells; host or cells: HTLA cells, transient

[34] = biological target: 318 nonolfactory human GPCRs (Homo sapiens, UniProt P30989); settings: NTSR1; C21 5 µM

SMILES: c1ccc2c(c1)N=C(N1CCNCC1)c1ccccc1N2 [C21, 11-(1-piperazinyl)-5H-dibenzo[b,e][1,4]diazepine]
- FOLD OVER BASAL [1]: 0.9 fold and 1.1 fold
- FOLD OVER BASAL [2]: 0.8 fold and 1.2 fold and 0.6 fold and 0.7 fold
- FOLD OVER BASAL [3]: 1.3 fold and 1.6 fold and 1.5 fold
- FOLD OVER BASAL [4]: 0.7 fold and 0.8 fold
- FOLD OVER BASAL [5]: 1.2 fold and 1 fold and 0.9 fold
- FOLD OVER BASAL [6]: 0.8 fold and 0.5 fold
- FOLD OVER BASAL [7]: 1.5 fold and 0.8 fold and 1 fold and 0.9 fold
- FOLD OVER BASAL [8]: 1.3 fold and 1 fold and 0.7 fold and 1.1 fold
- FOLD OVER BASAL [9]: 1.2 fold and 0.8 fold
- FOLD OVER BASAL [10]: 0.6 fold and 0.7 fold and 0.9 fold
- FOLD OVER BASAL [11]: 0.6 fold and 1 fold and 0.8 fold
- FOLD OVER BASAL [12]: 0.6 fold and 0.5 fold and 0.9 fold
- FOLD OVER BASAL [13]: 0.9 fold and 1 fold and 1.6 fold and 0.8 fold
- FOLD OVER BASAL [14]: 1.1 fold and 0.9 fold and 1 fold
- FOLD OVER BASAL [15]: 1.1 fold and 1.9 fold and 1.5 fold
- FOLD OVER BASAL [16]: 0.6 fold and 0.8 fold and 0.9 fold
- FOLD OVER BASAL [17]: 0.4 fold and 0.2 fold and 0.3 fold
- FOLD OVER BASAL [18]: 1.1 fold and 1 fold and 1.2 fold
- FOLD OVER BASAL [19]: 1.2 fold and 1.3 fold and 0.9 fold
- FOLD OVER BASAL [20]: 1.3 fold and 1.2 fold and 0.7 fold and 1.1 fold
- FOLD OVER BASAL [21]: 1.1 fold and 0.9 fold and 1 fold
- FOLD OVER BASAL [22]: 1.2 fold and 0.8 fold
- FOLD OVER BASAL [23]: 1.2 fold and 0.9 fold and 1.3 fold and 1 fold
- FOLD OVER BASAL [24]: 0.7 fold and 0.8 fold
- FOLD OVER BASAL [25]: 1.4 fold and 0.8 fold and 1.3 fold
- FOLD OVER BASAL [26]: 1 fold and 1.1 fold and 1.3 fold
- FOLD OVER BASAL [27]: 0.5 fold and 0.8 fold and 1 fold and 0.9 fold
- FOLD OVER BASAL [28]: 0.8 fold and 0.5 fold
- FOLD OVER BASAL [29]: 3.6 fold and 4.2 fold and 3.3 fold and 5.4 fold
- FOLD OVER BASAL [30]: 1.2 fold and 0.7 fold and 1.1 fold and 0.9 fold
- FOLD OVER BASAL [31]: 0.8 fold and 0.7 fold and 1.1 fold
- FOLD OVER BASAL [32]: 0.6 fold and 0.5 fold and 0.8 fold
- FOLD OVER BASAL [33]: 0.7 fold and 0.8 fold and 0.5 fold and 0.9 fold
- FOLD OVER BASAL [34]: 1.1 fold and 0.9 fold and 1.2 fold
